Experiment [1] addresses T1, GPR40 (Homo sapiens, UniProt O14842). Put plainly: Inositol phosphate accumulation assay (A9_GPR40 cells). Type of experiment: cell-based. More on the design: expressed in transfected cells; host or cells: CHO cells stably transfected with GPR40 and aequorin. The note with it: inositol phosphate assay, A9_GPR40 cells, 1 hour; read-out: IP3 EC50. In a few lines: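 [^3H] inositol phosphate accumulation was measured by SPA after 1 h compound exposure at 37° C in HBSS/10 mM LiCl containing HSA, ending with a 20 mM formic acid quench. The GPR40-transfected A9 cells had first been labelled overnight (16 h) with 1 μCi/mL ^3H-inositol.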

The target in experiment [2] is T1, GPR40. As to the kind of experiment: Cell-based aequorin assay (CHO cells stably expressing GPR40 and aequorin). More on the design: expressed in transfected cells; host or cells: CHO cells stably transfected with GPR40 and aequorin. The note with it: activation of human GPR40, CHO cells, 0.01% HSA. In a few lines: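 CHO cells stably co-expressing GPR40 and aequorin, loaded with coelenterazine (1 ug/mL, 2 h, room temperature) in H/HBSS with 20 mM Hepes and 0.01% fatty acid-free HSA. Serially diluted compounds added; luminescence recorded over 20 s. EC50 from dose-response of maximum relative light units.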

Each structure is given as a SMILES string. pEC50: −log10 of the molar value. Where only a bound is given, the exact number is not on record here.

Data on 18 molecules can be found in patent publication US8030354B2, “Substituted biphenyl GPR40 modulators” (Amgen Inc., priority 2007, dated 2011).

Broadly, the pEC50 is the negative decadic logarithm of the EC50, by convention in mol/L.

T1 sequence (O14842 whole entry): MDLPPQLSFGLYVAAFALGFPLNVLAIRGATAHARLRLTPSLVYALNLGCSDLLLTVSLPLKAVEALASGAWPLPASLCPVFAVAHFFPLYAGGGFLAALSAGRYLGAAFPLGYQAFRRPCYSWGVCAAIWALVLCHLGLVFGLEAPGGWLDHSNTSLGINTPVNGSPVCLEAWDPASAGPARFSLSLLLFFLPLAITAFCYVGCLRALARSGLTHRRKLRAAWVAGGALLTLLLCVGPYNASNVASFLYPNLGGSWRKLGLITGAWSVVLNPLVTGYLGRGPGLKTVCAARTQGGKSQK

For `COc1ccc(F)c(-c2ccc(COc3cccc([C@@H](CC(=O)O)C4CC4)c3)cc2CN2[C@H](C)CC[C@H]2C)c1` (single isomer, unassigned) [Example 66.71, (3S)-3-Cyclopropyl-3-(3-(((2-(((2R,5R)-2,5-dimethyl-1-pyrrolidinyl)methyl)-2′-fluoro-5′-(methyloxy)-1,1′-biphenyl-4-yl)methyl)oxy)phenyl)propanoic acid or (3R)-3-cyclopropyl-3-(3-(((2-(((2R,5R)-2,5-dimethyl-1-pyrrolidinyl)methyl)-2′-fluoro-5′-(methyloxy)-1,1′-biphenyl-4-yl)methyl)oxy)phenyl)propanoic acid], the negative-log EC50 (pEC50) at GPR40 [1] and at GPR40 [2] was 6.00 to 7.00 throughout.
With `COc1cc(-c2cc(F)c(COc3cccc([C@@H](CC(=O)O)C4CC4)c3)cc2[C@H]2CCCC2(C)C)c(F)cn1` (single isomer, unassigned) [Example 66.77], the pEC50 was above 8.00 on GPR40 [1] and 7.00 to 8.00 on GPR40 [2].
Taken in the same sequence, the figures for `CCCC(CC(=O)O)c1cccc(OCc2ccc(-c3cc(OC)ccc3F)c(OC3CCCCCC3)c2)c1` (single isomer, unassigned) [Example 67.2, (3R)-3-(3-(((2-(Cycloheptyloxy)-2′-fluoro-5′-(methyloxy)-1,1′-biphenyl-4-yl)methyl)oxy)phenyl)hexanoic acid or (3S)-3-(3-(((2-(cycloheptyloxy)-2′-fluoro-5′-(methyloxy)-1,1′-biphenyl-4-yl)methyl)oxy)phenyl)hexanoic acid] were 6.00 to 7.00 and 6.00 to 7.00.
Taken in the same sequence, the figures for `CCCC(CC(=O)O)c1cccc(OCc2ccc(-c3cc(OC)ccc3F)c(C3=CCCCCC3)c2)c1` (single isomer, unassigned) [Example 67.6, (3R)-3-(3-(((2-(1-Cyclohepten-1-yl)-2′-fluoro-5′-(methyloxy)-1,1′-biphenyl-4-yl)methyl)oxy)phenyl)hexanoic acid or (3S)-3-(3-(((2-(1-cyclohepten-1-yl)-2′-fluoro-5′-(methyloxy)-1,1′-biphenyl-4-yl)methyl)oxy)phenyl)hexanoic acid] were 7.00 to 8.00 and 6.00 to 7.00.
Take `CCCC(CC(=O)O)c1cccc(OCc2ccc(-c3cc(OC)ccc3F)c(C3CCCCCC3)c2)c1` (single isomer, unassigned) [Example 67.7, (3R)-3-(3-(((2-Cycloheptyl-2′-fluoro-5′-(methyloxy)-1,1′-biphenyl-4-yl)methyl)oxy)phenyl)hexanoic acid or (3S)-3-(3-(((2-cycloheptyl-2′-fluoro-5′-(methyloxy)-1,1′-biphenyl-4-yl)methyl)oxy)phenyl)hexanoic acid]: the negative-log EC50 (pEC50) on GPR40 [1] is 7.00 to 8.00; at GPR40 [2], 6.00 to 7.00.
Taken in the same sequence, the figures for `CCCC(CC(=O)O)c1cccc(OCc2ccc(-c3cc(OC)ccc3F)c(C3CCCCC3)c2)c1` (single isomer, unassigned) [Example 67.8, (3R)-3-(3-(((2-Cyclohexyl-2′-fluoro-5′-(methyloxy)-1,1′-biphenyl-4-yl)methyl)oxy)phenyl)hexanoic acid or (3S)-3-(3-(((2-cyclohexyl-2′-fluoro-5′-(methyloxy)-1,1′-biphenyl-4-yl)methyl)oxy)phenyl)hexanoic acid] were 7.00 to 8.00 and 6.00 to 7.00.
Taken in the same sequence, the figures for `CCC[C@H](CC(=O)O)c1cccc(OCc2ccc(-c3cc(OC)ccc3F)c(C3CCCC3(C)C)c2)c1` (single isomer, unassigned) [Example 67.11, (3R)-3-(3-(((2-(2,2-Dimethylcyclopentyl)-2′-fluoro-5′-(methyloxy)-1,1′-biphenyl-4-yl)methyl)oxy)phenyl)hexanoic acid or (3S)-3-(3-(((2-(2,2-dimethylcyclopentyl)-2′-fluoro-5′-(methyloxy)-1,1′-biphenyl-4-yl)methyl)oxy)phenyl)hexanoic acid] were 7.00 to 8.00 and 6.00 to 7.00.
Taken in the same sequence, the figures for `CCCC(CC(=O)O)c1cccc(OCc2ccc(-c3cccc(OC)c3)c(C3=CCCC3(C)C)c2)c1` (single isomer, unassigned) [Example 67.12, (3R)-3-(3-(((2-(5,5-Dimethyl-1-cyclopenten-1-yl)-3′-(methyloxy)-1,1′-biphenyl-4-yl)methyl)oxy)phenyl)hexanoic acid or (3S)-3-(3-(((2-(5,5-dimethyl-1-cyclopenten-1-yl)-3′-(methyloxy)-1,1′-biphenyl-4-yl)methyl)oxy)phenyl)hexanoic acid] were 7.00 to 8.00 and 6.00 to 7.00.
For `CCC[C@H](CC(=O)O)c1cccc(OCc2ccc(-c3cc(OC)ccc3F)c(N3CCCCC3)c2)c1` (single isomer, unassigned) [Example 67.20, (3R)-3-(3-(((2′-Fluoro-5′-(methyloxy)-2-(1-piperidinyl)-1,1′-biphenyl-4-yl)methyl)oxy)phenyl)hexanoic acid or (3S)-3-(3-(((2′-fluoro-5′-(methyloxy)-2-(1-piperidinyl)-1,1′-biphenyl-4-yl)methyl)oxy)phenyl)hexanoic acid], the pEC50 is 7.00 to 8.00 at GPR40 [1] and 6.00 to 7.00 at GPR40 [2].
As for `CCC[C@H](CC(=O)O)c1cccc(OCc2cc(C3=CCCC3(C)C)c(-c3cc(OC)ccc3F)cc2F)c1` (single isomer, unassigned) [Example 67.21], the pEC50 at GPR40 [1] was 7.00 to 8.00; at GPR40 [2], 6.00 to 7.00.
For `C=CC(C)(C)[C@H](OC)c1cc(COc2cccc([C@H](CCC)CC(=O)O)c2)ccc1-c1cc(OC)ccc1F` (single isomer, unassigned) [Example 67.24], the pEC50 is 7.00 to 8.00 at GPR40 [1] and 6.00 to 7.00 on GPR40 [2].
Taken in the same sequence, the figures for `COc1ccc(F)c(-c2ccc(COc3cccc(C(CC(=O)O)CC4CC4)c3)cc2C2CCCCCC2)c1` (single isomer, unassigned) [Example 69.1, (3R)-3-(3-(((2-Cycloheptyl-2′-fluoro-5′-(methyloxy)-1,1′-biphenyl-4-yl)methyl)oxy)phenyl)-4-cyclopropylbutanoic acid or (3S)-3-(3-(((2-cycloheptyl-2′-fluoro-5′-(methyloxy)-1,1′-biphenyl-4-yl)methyl)oxy)phenyl)-4-cyclopropylbutanoic acid] were above 8.00 and 6.00 to 7.00.
As to `COc1cccc(-c2ccc(COc3cccc(C(CC(=O)O)CC4CC4)c3)cc2C2=CCCC2(C)C)c1` (single isomer, unassigned) [Example 69.2, (3R)-4-Cyclopropyl-3-(3-(((2-(5,5-dimethyl-1-cyclopenten-1-yl)-3′-(methyloxy)-1,1′-biphenyl-4-yl)methyl)oxy)phenyl)butanoic acid or (3S)-4-cyclopropyl-3-(3-(((2-(5,5-dimethyl-1-cyclopenten-1-yl)-3′-(methyloxy)-1,1′-biphenyl-4-yl)methyl)oxy)phenyl)butanoic acid], the results for the pEC50 on GPR40 [1] and on GPR40 [2] were 7.00 to 8.00 and 6.00 to 7.00, respectively.
As to `COc1cccc(-c2ccc(COc3cccc(C(CC(=O)O)CC4CC4)c3)cc2C(C)(C)C)c1` (single isomer, unassigned) [Example 69.3, (3R)-4-Cyclopropyl-3-(3-(((2-(1,1-dimethylethyl)-3′-(methyloxy)-1,1′-biphenyl-4-yl)methyl)oxy)phenyl)butanoic acid or (3S)-4-cyclopropyl-3-(3-(((2-(1,1-dimethylethyl)-3′-(methyloxy)-1,1′-biphenyl-4-yl)methyl)oxy)phenyl)butanoic acid], the results for the negative logarithm of the EC50 (pEC50) at GPR40 [1] and at GPR40 [2] were 7.00 to 8.00 and 6.00 to 7.00, respectively.
Taken in the same sequence, the figures for `COc1ccc(F)c(-c2ccc(COc3cccc(C(CC(=O)O)CC4CC4)c3)cc2C(C)(C)C)c1` (single isomer, unassigned) [Example 69.4, (3R)-4-Cyclopropyl-3-(3-(((2-(1,1-dimethylethyl)-2′-fluoro-5′-(methyloxy)-1,1′-biphenyl-4-yl)methyl)oxy)phenyl)butanoic acid or (3S)-4-cyclopropyl-3-(3-(((2-(1,1-dimethylethyl)-2′-fluoro-5′-(methyloxy)-1,1′-biphenyl-4-yl)methyl)oxy)phenyl)butanoic acid] were 7.00 to 8.00 and 6.00 to 7.00.
Taken in the same sequence, the figures for `COc1ccc(F)c(-c2ccc(COc3cccc(C(CC(=O)O)CC4CC4)c3)cc2C2=CCCC2(C)C)c1` (single isomer, unassigned) [Example 69.6, (3R)-4-Cyclopropyl-3-(3-(((2-(5,5-dimethyl-1-cyclopenten-1-yl)-2′-fluoro-5′-(methyloxy)-1,1′-biphenyl-4-yl)methyl)oxy)phenyl)butanoic acid or (3S)-4-cyclopropyl-3-(3-(((2-(5,5-dimethyl-1-cyclopenten-1-yl)-2′-fluoro-5′-(methyloxy)-1,1′-biphenyl-4-yl)methyl)oxy)phenyl)butanoic acid] were 7.00 to 8.00 and 6.00 to 7.00.
As for `COc1cccc(-c2ccc(COc3cccc(C(CC(=O)O)CC4CC4)c3)cc2C2CCCC2(C)C)c1` (single isomer, unassigned) [Example 69.10], the pEC50 is above 8.00 on GPR40 [1] and 7.00 to 8.00 at GPR40 [2].
Taken in the same sequence, the figures for `COc1cccc(-c2ccc(COc3cccc(C(CC(=O)O)CC4CC4)c3)cc2C2CCCCCC2)c1` (single isomer, unassigned) [Example 69.11, (3R)-3-(3-(((2-Cycloheptyl-3′-(methyloxy)-1,1′-biphenyl-4-yl)methyl)oxy)phenyl)-4-cyclopropylbutanoic acid or (3S)-3-(3-(((2-cycloheptyl-3′-(methyloxy)-1,1′-biphenyl-4-yl)methyl)oxy)phenyl)-4-cyclopropylbutanoic acid] were 7.00 to 8.00 and 6.00 to 7.00.
